For 21 compounds, EC50 and Emax results are on record in patent US12275733B2, “Substituted pyrido[3,4-b]indoles for the treatment of cartilage disorders” (Sanofi, priority 2016, dated 2025).

For assay [1], the system named is primary human chondrocyte pellet cultures. The assay can be described thus: Chondrogenesis activity assay in primary human chondrocyte pellet cultures (proteoglycan (aggrecan) induction, Blyscan assay). In kind it is cell-based. To be noted: for EC50: 336 h, proteoglycan (aggrecan) induction, primary human chondrocyte pellets, 2 weeks culture; for Emax: Homo sapiens, Chondrocyte, maximum percent proteoglycan (aggrecan) induction relative to the internal reference compound at 10 μM. The procedure: B) Chondrogenesis Activity Assay in Primary Human Chondrocyte Pellet Cultures
In this assay human articular chondrocytes are harvested by enzymatic digestion from articular cartilage and passaged several times to dedifferentiate the chondrocytes and to propagate the cells. Cells are cultured as cell pellets in the presence of the compounds of the invention over 2 weeks, and the chondrogenic differentiation is quantified by the production of the chondrogenic marker aggrecan (proteoglycan).
In detail, primary chondrocytes were harvested by enzymatic digestion from cartilage of osteoarthritis patients undergoing knee joint replacement surgery, and cultured in vitro. Cells were passaged one or two times and aliquots were cryopreserved. To initiate chondrogenesis experiments, cell aliquots were thawn, cultured in Chondrocyte Growth Medium (CGM, Lonza, #CC-3216) and passaged twice to further propagate and dedifferentiate cells. Pellet cultures were initiated by seeding 2.5×10E5 cells per well into a 96-well deep well plate in 600 μl chondrocyte differentiation medium consisting of Dulbecco's Modified Eagle Medium (DMEM, Invitrogen, #41966), 1×ITS-solution (Insulin/Transferrin/sodium selenite; 100× solution: Invitrogen, #51500056), 5 μg/mL linoleic acid (Sigma, #L1012-1G), 1× nonessential amino acids (100× solution: Invitrogen, #11140); 10 nM Dexamethasone, 2 ng/ml TGF-β1 (transforming growth factor β1) and 10 μg/ml ascorbic acid. Cells were spun to pellets by centrifugation (10 min, 400×g). Test compounds dissolved in DMSO were added to yield increasing compound concentrations, typically from 40 nM to 10 μM, and a final DMSO concentration of 0.1%, and the cell pellets cultured at 37° C., and 5% CO2 for 2 weeks. On each 96-well plate, control wells containing no test compound but the same concentration of DMSO, i.e. untreated cells, were included and used as reference for the determination of the effect of the test compounds on the cells, and wells containing an internal reference compound at a concentration of 10 μM were included and used as positive control and for standardizing the results. Chondrocyte differentiation medium and the compounds were exchanged twice weekly until harvest of the pellets.
For harvest of the pellets, medium was removed and the pellet was homogenized by enzymatic digestion. 100 μl of protease solution containing 0.4 mg/ml papain, 50 mM sodium phosphate, 4 mM EDTA and 0.48 mg/ml L-cysteine was added to the pellet in each well of a 96-well plate, the plate was sealed with a plate sealer foil (SILVERseal, Greiner Bio-One) and incubated for 4 to 6 hours at 65° C. with agitation.
The concentration of proteoglycan (aggrecan) was determined by quantification of the sulfated glycosaminoglycan side chains of aggrecan using the Blyscan assay (Kit from Biocolor). Aliquots of the papain-digest were transferred to 400 μl of Blyscan dye solution and incubated at room temperature for 45 min with agitation (1200 rpm). The mixture was centrifuged at 3760×g for 45 min, the supernatant was discarded, and the stained pellet was redissolved in 400 μl of Blyscan dissociation reagent by rotation until the precipitate completely resolved. Optical density was measured at 656 nm using a Tecan Saphire2 instrument, and the amount of proteoglycan determined against a standard curve with chondroitin-4-sulfate.
Induction of proteoglycan (aggrecan) was calculated for each compound concentration relative to the control (untreated cells, i.e. no test compound added), and an EC50 value (effective concentration 50 (in μM (micromollliter)), i.e. the compound concentration at which the effect of the compound on proteoglycan (aggrecan) induction reaches 50% of the maximum induction) was calculated using a sigmoidal signal fit procedure. […]

A further assay has as its system ATDC5 cells. The experiment in a line: Chondrogenesis activity assay in ATDC5 cells (collagen type II induction, immunofluorescence). To be noted: Mus musculus; for EC50: collagen type II induction in ATDC5 cells, concentration reaching 50% of maximum induction; for Emax: maximum percent induction of collagen type II relative to internal reference compound at 10 μM, ATDC5 cells. The assay is classed as cell-based, mouse. The method in brief: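 Collagen type II was stained in fixed, permeabilized cells with an Alexa Fluor 488 secondary and measured by high-content fluorescence imaging. ATDC5 cells had 4 days at 37 °C in insulin-supplemented differentiation medium with compound, typically 40 nM–10 μM, 0.1% DMSO. DMSO wells and a 10 μM internal reference compound were used for normalization.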

Regarding `FC(F)(F)Cn1c2cnccc2c2cc(Cl)cc(-c3cnn(-c4ccccc4)c3)c21` [Example 11, 6-Chloro-8-(1-phenyl-1H-pyrazol-4-yl)-9-(2,2,2-trifluoroethyl)-9H-pyrido[3,4-b]indole], in assay [1], the concentration giving a half-maximal response (EC50) (as a rule, the concentration giving half of the maximal effect) came out at 7.9 µM and the Emax – broadly, the maximal effect, on the per cent scale that the assay sets – was 40 to 100%. In the assay on ATDC5 cells, this compound came in with an EC50 of 3.9 µM and an Emax of 50 to 80%.

For `Cc1nccc2c1[nH]c1c(-c3ccc(OCCn4cccn4)cc3)cc(Cl)c(C)c12` [Example 45], in assay [1], a half-maximal effect (EC50) was put at 0.22 µM and the Emax lay in the range of 40 to 100%. In the assay on ATDC5 cells, this compound yielded a 50% effective concentration (EC50) of 0.13 µM and an Emax greater than 80%.

As to `CCn1c2c(-c3cnn(Cc4ccccn4)c3)cc(Cl)cc2c2ccnc(C)c21` [Example 244, 6-Chloro-9-ethyl-1-methyl-8-(1-pyridin-2-ylmethyl-1H-pyrazol-4-yl)-9H-pyrido[3,4-b]indole], in assay [1], the EC50 came out at 4.9 µM and the Emax is greater than 200%. Further, in the assay with ATDC5 cells, the 50% effective concentration (EC50) was found to be 1.1 µM and the Emax is greater than 80%.

Take `Cc1nccc2c1[nH]c1c(-c3cccc(NC(=O)Nc4ccc(F)cc4F)c3)cc(Cl)cc12` [Example 230, 1-[3-(6-Chloro-1-methyl-9H-pyrido[3,4-b]indol-8-yl)-phenyl]-3-(2,4-difluoro-phenyl)-urea]: in assay [1], the EC50 stood at 21 µM and the maximum response (Emax) is less than 40%. In the assay on ATDC5 cells, this compound had an EC50 greater than 3.3 µM and an Emax of less than 20%.

`Cc1nccc2c1[nH]c1c(-c3ccc(OCc4ccc5ccccc5n4)cc3)cc(Cl)cc12` [Example 34, 6-Chloro-1-methyl-8-[4-(quinolin-2-ylmethoxy)-phenyl]-9H-pyrido[3,4-b]indole]: the EC50 in assay [1] is 3.8 µM; with ATDC5 cells it was greater than 1.1 µM. For the same compound, the figures for the Emax (in assay [1]; in the assay on ATDC5 cells) were greater than 200% and 20 to 50%, respectively.

In assay [1], `COC(=O)c1cc2c([nH]c3c(-c4ccc(Cl)nc4Cl)cc(Cl)cc32)c(C)n1` [Example 117, 6-Chloro-8-(2,6-dichloro-pyridin-3-yl)-1-methyl-9H-pyrido[3,4-b]indole-3-carboxylic acid methyl ester] showed an EC50 of 27 µM and an Emax of less than 40%. Besides, in the assay on ATDC5 cells, the EC50 is greater than 10 µM and the Emax is less than 20%.

In assay [1], `COCc1cc(-c2cc(Cl)cc3c2[nH]c2c(C)nccc23)ccc1OC` [Example 200, 6-Chloro-8-(4-methoxy-3-methoxymethyl-phenyl)-1-methyl-9H-pyrido[3,4-b]indole] gave an EC50 of 4.4 µM and an Emax of 100 to 200%. Also, in the assay with ATDC5 cells, the EC50 is greater than 10 µM and the Emax fell in the range of 20 to 50%.

For the compound `CCn1c2c(-c3ccc(OCC4(C)COC4)cc3)cc(Cl)cc2c2ccnc(C)c21` [Example 256, 6-Chloro-9-ethyl-1-methyl-8-[4-(3-methyl-oxetan-3-ylmethoxy)-phenyl]-9H-pyrido[3,4-b]indole], in assay [1], a half-maximal effect (EC50) was put at 1.3 µM and the maximal effect (Emax) was greater than 200%. In the assay on ATDC5 cells, this compound came in with an EC50 of 0.16 µM and an Emax greater than 80%.

Take `Cc1nccc2c1[nH]c1c(-c3ccnc(N4CCN(C)CC4)c3)cc(Cl)cc12` [Example 214, 6-Chloro-1-methyl-8-[2-(4-methyl-piperazin-1-yl)-pyridin-4-yl]-9H-pyrido[3,4-b]indole]: the EC50 in assay [1] was 1.3 µM; in the assay with ATDC5 cells, greater than 3.3 µM. Moreover, the Emax in assay [1] was 100 to 200%; in the assay on ATDC5 cells, less than 20%.

With `Cc1nccc2c1[nH]c1c(-c3ccc(N4CCN(C)CC4)nc3)cc(Cl)cc12` [Example 118, 6-Chloro-1-methyl-8-[6-(4-methyl-piperazin-1-yl)-pyridin-3-yl]-9H-pyrido[3,4-b]indole], the EC50 in assay [1] was 1.3 µM; with ATDC5 cells, greater than 1.1 µM. In addition, the Emax fell in the range of 100 to 200% in assay [1] and 20 to 50% with ATDC5 cells.

In assay [1], `COc1ccc(-c2cc(Cl)cc3c2[nH]c2c(C)nccc23)nc1N` [Example 218, 6-(6-Chloro-1-methyl-9H-pyrido[3,4-b]indol-8-yl)-3-methoxy-pyridin-2-ylamine] came in with an EC50 of 40 µM and an Emax of less than 40%. In addition, in the assay with ATDC5 cells, the EC50 is greater than 1.1 µM and the Emax was less than 20%.

In assay [1], `Cc1nccc2c1[nH]c1c(-c3cccnc3OCc3ccccc3)cc(Cl)cc12` [Example 119, 8-(2-Benzyloxy-pyridin-3-yl)-6-chloro-1-methyl-9H-pyrido[3,4-b]indole] registered an EC50 of 21 µM and an Emax of 40 to 100%. In the assay with ATDC5 cells, the EC50 is greater than 3.3 µM and the Emax is less than 20%.

On to `Cc1nccc2c1[nH]c1c(-c3cnccc3Cl)cc(Cl)cc12` [Example 97, 6-Chloro-8-(4-chloro-pyridin-3-yl)-1-methyl-9H-pyrido[3,4-b]indole], for which the results for the EC50 (in assay [1]; in the assay on ATDC5 cells) were 5.1 µM and greater than 1.1 µM, respectively. Moreover, the Emax in assay [1] is greater than 200%; in the assay on ATDC5 cells, less than 20%.

In assay [1], `Cc1nccc2c1[nH]c1c(-c3ccc4c(c3)OC(C)(C)C4)cc(Cl)cc12` [Example 195, 6-Chloro-8-(2,2-dimethyl-2,3-dihydro-benzofuran-6-yl)-1-methyl-9H-pyrido[3,4-b]indole] returned an EC50 of 14 µM and an Emax of less than 40%. In the assay with ATDC5 cells, this compound had an EC50 greater than 10 µM and an Emax of less than 20%.

`Cc1nccc2c1[nH]c1c(-c3ccnc(N)c3)cc(Cl)cc12` [Example 215, 4-(6-Chloro-1-methyl-9H-pyrido[3,4-b]indol-8-yl)-pyridin-2-ylamine]: in the assay on ATDC5 cells, a half-maximal response (EC50) required 0.23 µM and the Emax is greater than 80%.

Take `Cc1nccc2c3cc(Cl)cc(-c4ccc(Cl)nc4Cl)c3n(CC3CC3)c12` [Example 285, 6-Chloro-9-cyclopropylmethyl-8-(2,6-dichloro-pyridin-3-yl)-1-methyl-9H-pyrido[3,4-b]indole]: in the assay with ATDC5 cells, it took 6.1 µM to reach a half-maximal effect (EC50) and the Emax fell in the range of 20 to 50%.

In the assay on ATDC5 cells, `Cc1nccc2c3cc(Cl)cc(-c4cnn(Cc5cccnc5)c4)c3n(CC3CC3)c12` [Example 290, 6-Chloro-9-cyclopropylmethyl-1-methyl-8-(1-pyridin-3-ylmethyl-1H-pyrazol-4-yl)-9H-pyrido[3,4-b]indole] gave an EC50 greater than 10 µM and an Emax of 20 to 50%.

As to `Cc1nccc2c1[nH]c1c(-c3ccc(OCc4ncccn4)cc3)cc(Cl)cc12` [Example 266, 6-Chloro-1-methyl-8-[4-(pyrimidin-2-ylmethoxy)-phenyl]-9H-pyrido[3,4-b]indole], in the assay with ATDC5 cells, it took 0.11 µM to reach a half-maximal effect (EC50) and the Emax is greater than 80%.

For `CCn1c2c(-c3ccc(Cl)nc3Cl)cc(Cl)cc2c2ccnc(C)c21` [Example 59, 6-Chloro-8-(2,6-dichloro-pyridin-3-yl)-9-ethyl-1-methyl-9H-pyrido[3,4-b]indole], in the assay with ATDC5 cells, the EC50 was determined as 1.3 µM and the maximal response (Emax) was greater than 80%.

In the assay on ATDC5 cells, `CCn1c2cnccc2c2cc(Cl)cc(-c3ccc(C)cc3)c21` [Example 143, 6-Chloro-9-ethyl-8-p-tolyl-9H-pyrido[3,4-b]indole] returned an EC50 of 0.97 µM and a maximum response (Emax) of 20 to 50%.

For the compound `CCn1c2cnccc2c2cc(Cl)cc(-c3ccc(OC)cc3)c21` [Example 142, 6-Chloro-9-ethyl-8-(4-methoxy-phenyl)-9H-pyrido[3,4-b]indole], in the assay with ATDC5 cells, the EC50 is 0.52 µM and the Emax was greater than 80%.
